Assay results reported in patent publication US20250228824A1, “COMPOSITIONS AND METHODS FOR INHIBITION OF ITO AS TREATMENT FOR THE J WAVE SYNDROMES AND HYPOTHERMIA” (Lankenau Institute for Medical Research, priority 2021, published 2025).

What was measured:
[1] = system: coronary-perfused canine right (RV) and left (LV) ventricular wedge models of JWS; experiment: Coronary-perfused ventricular wedge models of the J wave syndromes (NS5806 alone or with verapamil); design: QT interval / T wave amplitude / Epi (APD50) / Epi (APD90): unit not given here
Method: Ten hearts from purpose-bred adult male mongrel dogs (20-22 kg) were acquired from Covance (Denver, PA) and another 10 hearts from purpose-bred adult male Beagle dogs (10-16 kg) were obtained from Envigo (Denver, PA). Dogs were sedated with ketamine (10 mg/kg, IM) and xylazine 2 (mg/kg, IM). Prior to euthanasia (Euthasol solution: pentobarbital sodium and phenytoin sodium; 0.22 ml/kg, IV), and heparin (human pharmaceutical grade, 1,000 U/kg, IV) were administered 3-4 min before isolation of the hearts via a left thoracotomy. Retrograde aortic perfusion of the hearts with ice-cold cardioplegic solution (modified K-H solution; 16 mM KCl) was immediately performed to rinse the coronary vasculature of blood. The hearts were then placed in a sealed container containing ice-cold cardioplegic solution and transported to our institution via private courier in an insulated package filled with icepacks.
Transmural wedges were dissected from the base of the RV and LV. During the cannulation procedure, preparations were initially arterially perfused with cardioplegic solution. Next, the wedge preparations were placed in a tissue bath and perfused with a modified Krebs-Henseleit solution (K—H) bubbled with 95% O2/5% CO2 warmed to 37° C. The composition of K—H was (in mM): 118 NaCl, 4 KCl, 2 CaCl2, 1.2 MgSO4, 24 NaHCO3, 1.2 NaH2PO4, 2 Na Pyruvate and 10 D-Glucose. The perfusate was delivered at a constant pressure (45-50 mmHg). A transmural pseudo-ECG (ECG) was recorded using two Ag/AgCl half cells placed at ˜1 cm from the Epi (+) and Endo (−) surfaces along the same axis as the transmembrane action potential (AP) recordings. APs were simultaneously recorded from the immediate sub-Epi and M cell region (˜2-3 mm from the Endo surface) using floating glass microelectrodes. Pacing was applied to the Endo surface using bipolar silver electrodes insulated except at the tips (Basic Cycle Lengths [BCLs]: 500-2,000 ms). A detailed description of the arterially-perfused ventricular wedge preparation has been previously published.^5 ECG and AP signals were digitized and analyzed using Spike 2 for Windows (Cambridge Electronic Design, Cambridge, UK).
We used the Ito-agonist NS5806 (5-10 μM) alone or with the calcium-channel blocker verapamil (2.5 μM) to pharmacologically mimic the effects of the ion channel genetic defects underlying ERS and BrS. These provocative agents were added to the coronary perfusate in increasing concentrations until the characteristic ECG phenotypes were unmasked, including phase 2 reentry (P2R), closely coupled premature beats (CCPBs) and/or pVT/VF. AR-787 was added to the perfusate to test its ability to suppress or prevent arrhythmogenesis.

[2] = high doses / high plasma levels; cited from earlier work
[3] = NS5806 5-10 μM, 3 LV wedges, BCL 800 msec

SMILES | QT interval ([1]; AR-787 1, 10 or 50 μM, NS5806 5-10 μM, five wedges) | effect on phase 1 magnitude, AP notch and J wave ([1]; NS5806 5-10 μM in coronary perfusate) | Epi (APD50) [1, 3] | Epi (APD90) [1, 3] | J wave amplitude [1, 3] | M (APD50) [1, 3] | M (APD90) [1, 3] | Ph1 mag (% Ph0) [1, 3] [% Ph0] | QT interval [1, 3] | T wave amplitude [1, 3] | patients developing serious GI side effects [2]
O=C(Nc1cc(C(F)(F)F)cc(C(F)(F)F)c1)Nc1c(Br)cc(Br)cc1-c1nn[nH]n1 [NS5806, reference compound] | unaffected | increased the magnitude of phase 1 | 181.8 ± 10.4 | 215.6 ± 5.3 | 31.3 ± 4.6 | 179.5 ± 5.9 | 228.4 ± 7.7 | 40.2 ± 6.5 | 261.2 ± 4.5 | 17.8 ± 9.6 | 
C=C[C@H]1C[N@@]2CC[C@H]1C[C@@H]2[C@@H](O)c1ccnc2ccc(OC)cc12 [quinidine] |  |  |  |  |  |  |  |  |  |  | approximately 50%
